Consider four compounds from ChEMBL document CHEMBL1132812, “Novel phosphinic and phosphonic acid analogues of the anticonvulsant valproic acid” (Bioorg Med Chem Lett, 2000).

The species named for assay [1] is Rattus norvegicus. As to the kind of experiment: Compound was evaluated for the anticonvulsant activity in amygdala kindled rats; Inactive. In kind it is functional, organism-based.
The target in assay [2] is T1, Succinate-semialdehyde dehydrogenase, mitochondrial (Homo sapiens) (UniProt P51649).
T1 sequence (whole entry): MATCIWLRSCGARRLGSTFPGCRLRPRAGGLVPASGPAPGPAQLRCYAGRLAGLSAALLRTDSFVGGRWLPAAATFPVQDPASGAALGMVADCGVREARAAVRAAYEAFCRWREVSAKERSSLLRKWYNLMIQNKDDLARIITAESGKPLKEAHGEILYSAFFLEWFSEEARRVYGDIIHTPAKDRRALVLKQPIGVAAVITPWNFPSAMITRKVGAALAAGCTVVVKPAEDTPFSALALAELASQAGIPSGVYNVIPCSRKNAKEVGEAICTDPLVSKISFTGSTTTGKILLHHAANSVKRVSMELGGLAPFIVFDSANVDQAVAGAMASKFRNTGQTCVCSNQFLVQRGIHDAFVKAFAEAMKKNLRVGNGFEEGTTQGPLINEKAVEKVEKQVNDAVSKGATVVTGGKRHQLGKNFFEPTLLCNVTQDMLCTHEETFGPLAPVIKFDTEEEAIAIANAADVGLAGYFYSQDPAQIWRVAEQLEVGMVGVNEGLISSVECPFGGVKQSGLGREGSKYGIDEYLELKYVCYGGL
As to the kind of experiment: Compound was tested for the inhibition of succinic semialdehyde dehydrogenase; Active.

The target of assay [3] is 4-aminobutyrate aminotransferase, mitochondrial (Homo sapiens) (UniProt P80404). As to the kind of experiment: Compound was tested for the inhibition of Gamma-amino-N-butyrate transaminase; Active.
The species entered for assay [4] is Rattus norvegicus. As to the kind of experiment: Compound was evaluated for the anticonvulsant activity in amygdala kindled rats; Active. The format is functional, organism-based.

Active and inactive are the calls of the source. The calls are words filed in the database; no cut-off is given here.

Chain of 4-aminobutyrate aminotransferase, mitochondrial (Homo sapiens) (P80404 whole entry): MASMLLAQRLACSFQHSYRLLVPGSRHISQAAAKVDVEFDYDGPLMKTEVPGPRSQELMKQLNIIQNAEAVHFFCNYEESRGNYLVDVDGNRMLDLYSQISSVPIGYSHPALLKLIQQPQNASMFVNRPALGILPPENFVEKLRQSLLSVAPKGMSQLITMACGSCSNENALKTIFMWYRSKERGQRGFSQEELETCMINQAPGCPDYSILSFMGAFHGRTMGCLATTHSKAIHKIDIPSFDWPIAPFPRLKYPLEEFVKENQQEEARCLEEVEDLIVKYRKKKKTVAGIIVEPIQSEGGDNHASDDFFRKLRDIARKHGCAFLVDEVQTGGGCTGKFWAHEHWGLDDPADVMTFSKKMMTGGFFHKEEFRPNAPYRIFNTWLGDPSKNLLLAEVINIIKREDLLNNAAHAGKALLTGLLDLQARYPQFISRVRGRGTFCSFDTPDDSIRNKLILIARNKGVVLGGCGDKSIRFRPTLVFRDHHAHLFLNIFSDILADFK

`CCCC(CCC)P(=O)(O)O`: the result in the assay listed under Rattus norvegicus [1] was inactive.

On to `CCCC(CCC)[PH](=O)O`, for which the outcome in the assay filed under Rattus norvegicus [1] was inactive.

Regarding `CCCC(CCC)C(=O)O`, the result (in assay [2]; in assay [3]; in the assay listed under Rattus norvegicus [4]) was Active.

Regarding `CCCC(CCC)P(C)(=O)O`, the result in the assay filed under Rattus norvegicus [1] was inactive.
